Laboratory results taken from patent US20230087941A1, “COMBINATIONS” (Recurium IP Holdings, LLC, priority 2019, published 2023).

Experiments:
[1] = test system: ZR-75-1-R breast cancer tumor cells (Tamoxifen resistant); test: ZR-75-1-R xenograft tumor model; format: in vivo; details: oral, daily, 28 days, ZR-75-1-R xenograft in BALB/c nude mice
Method: (§1) ZR-75-1-R breast cancer tumor cells (Tamoxifen resistant) were maintained in vitro as monolayer culture in RPMI1640 Medium supplemented with 10% fetal bovine serum and 10 μM tamoxifen at 37° C. in an atmosphere of 5% CO2 in air. The cells growing in an exponential growth phase were harvested and counted for tumor inoculation. BALB/c nude mice were implanted subcutaneously in the right flank with ZR-75-1-R tumor cells (1×10^7) in 100 μl PBS:Matrigel (1:1). When tumors reached approximately 191 mm^3, animals were randomly distributed into treatment groups of 10 animals each and dosed orally, daily with vehicle, freebase Compound (A) at 30 mg/kg, Compound 1 at 80 mg/kg, or compound A at 30 mg/kg in combination with Compound 1 at 80 mg/kg for 28 days. In addition, estradiol benzoate injections were delivered by s.c. (40 μg/20 μL, twice weekly). Tumor volumes were evaluated twice per week to calculate tumor volume over time, and mice were weighed twice per week as a surrogate for signs of toxicity. Tumor growth inhibition (TGI) was calculated using the following equation TGI=(1−(Td−T0)/(Cd−C0))×100%. Td and Cd are the mean tumor volumes of the treated and control animals, and TO and CO are the mean tumor volumes of the treated and control animals at the start of the experiment.

[2] = test system: MCF-7 breast cancer tumor cells; test: MCF-7 xenograft tumor model; format: in vivo; details: Compound 1 80 mg/kg, oral, daily; MCF-7 xenograft in BALB/c nude mice
Method: as §1, with “In addition, estradiol benzoate injections were delivered by s.c. (40 μg/20 μL, twice weekly).” left out, “Tumor growth inhibition (TGI) was calculated using the following equation TGI=(1−(Td−T0)/(Cd−C0))×100%. Td and Cd are the mean tumor volumes of the treated and control animals, and TO and CO are the mean tumor volumes of the treated and control animals at the start of the experiment.” left out
Example 2: MCF-7 breast cancer tumor cells were cultured in vitro in DMEM Medium supplemented with 15% fetal bovine serum at 37° C. in an atmosphere of 5% CO2 in air. The cells growing in an exponential growth phase were harvested and counted for tumor inoculation. […] Tumor volumes were evaluated twice per week to calculate tumor volume over time, and mice were weighed twice per week as a surrogate for signs of toxicity. TGI values were calculated using the equation provide in Example 1.

With C=CCn1c(=O)c2cnc(Nc3ccc(N4CCN(C)CC4)cc3)nc2n1-c1ccc2c(n1)[C@@](O)(CC)CC2 [Compound 1] the “Tumor growth inhibition (TGI)” value ([1]; Compound 1 80 mg/kg) was 69.9% and the “Tumor growth inhibition (TGI)” value [2] was 132.6%.
With C[C@@H]1Cc2c([nH]c3ccccc23)[C@@H](c2c(F)cc(/C=C/C(=O)O)cc2F)N1C12CC(C1)C2 [Compound (A)] the “Tumor growth inhibition (TGI)” value ([1]; freebase Compound (A) 30 mg/kg) was 43.0%.
